We go through three molecules from publication PMC3639963, “A New Class of Small Molecule Inhibitor of BMP Signaling” (PLoS ONE, 2013).

Structures are written as SMILES. Where two headings read alike, the source gives them in different places.

One test concerns the target T1, SRPK2 (Homo sapiens, UniProt P78362).
T1 construct: purchased Nanosyn (enzymatic panel); SGC in-house recombinant human kinases (DSF panel); Invitrogen (ALK1-6)
Briefly: DSF thermal shift. The format is binding. The settings on record: 10 µM inhibitor; read-out: Tm shift. In outline:
(§1)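 Each recombinant human kinase (1–2 µM) was mixed with inhibitor at 10 µM. Samples were then heated in a real-time PCR machine to record protein melting.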

The next test has as its target T2, RSK4 (Homo sapiens, UniProt Q9UK32).
T2 construct: purchased Nanosyn (enzymatic panel); SGC in-house recombinant human kinases (DSF panel); Invitrogen (ALK1-6)
Briefly: DSF thermal shift. The format is binding. Conditions: 10 µM inhibitor; read-out: Tm shift. Put shortly: as §1

The target in the next test is T3, PKD3 (Homo sapiens, UniProt O94806).
T3 construct: purchased Nanosyn (enzymatic panel); SGC in-house recombinant human kinases (DSF panel); Invitrogen (ALK1-6)
Briefly: DSF thermal shift. The format is binding. The settings on record: 10 µM inhibitor; read-out: Tm shift. Put shortly: as §1

The next test concerns the target T4, ZAK (Homo sapiens, UniProt Q9NYL2).
T4 construct: purchased Nanosyn (enzymatic panel); SGC in-house recombinant human kinases (DSF panel); Invitrogen (ALK1-6)
Kind of test: DSF thermal shift. Conditions: 10 µM inhibitor; read-out: Tm shift. The format is binding. In outline: as §1

In another test the target is T5, STK33 (Homo sapiens, UniProt Q9BYT3).
T5 construct: purchased Nanosyn (enzymatic panel); SGC in-house recombinant human kinases (DSF panel); Invitrogen (ALK1-6)
Kind of test: DSF thermal shift. The format is binding. Conditions: 10 µM inhibitor; read-out: Tm shift. Put shortly: as §1

The target of another test is T6, p38β (Homo sapiens, UniProt Q15759).
T6 construct: purchased Nanosyn (enzymatic panel); SGC in-house recombinant human kinases (DSF panel); Invitrogen (ALK1-6)
Briefly: DSF thermal shift. The format is binding. Conditions: 10 µM inhibitor; read-out: Tm shift. In outline:
as §1

A further test addresses T7, PRKX (Homo sapiens, UniProt P51817).
T7 construct: purchased Nanosyn (enzymatic panel); SGC in-house recombinant human kinases (DSF panel); Invitrogen (ALK1-6)
T7 sequence (P51817 1-358): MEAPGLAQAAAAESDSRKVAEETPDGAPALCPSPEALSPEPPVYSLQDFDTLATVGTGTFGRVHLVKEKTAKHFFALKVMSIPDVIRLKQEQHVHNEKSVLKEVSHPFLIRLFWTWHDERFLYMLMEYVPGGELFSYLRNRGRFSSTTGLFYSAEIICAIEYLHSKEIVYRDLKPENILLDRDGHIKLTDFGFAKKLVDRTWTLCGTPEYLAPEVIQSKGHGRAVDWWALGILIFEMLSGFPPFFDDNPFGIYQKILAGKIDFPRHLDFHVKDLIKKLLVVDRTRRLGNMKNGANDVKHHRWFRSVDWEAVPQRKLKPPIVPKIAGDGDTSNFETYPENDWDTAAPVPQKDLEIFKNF
Briefly: DSF thermal shift. The format is binding. Conditions: 10 µM inhibitor; read-out: Tm shift. In outline: as §1

A further test concerns the target T8, DYRK2 (Homo sapiens, UniProt Q92630).
T8 construct: purchased Nanosyn (enzymatic panel); SGC in-house recombinant human kinases (DSF panel); Invitrogen (ALK1-6)
T8 sequence (Q92630 1-601): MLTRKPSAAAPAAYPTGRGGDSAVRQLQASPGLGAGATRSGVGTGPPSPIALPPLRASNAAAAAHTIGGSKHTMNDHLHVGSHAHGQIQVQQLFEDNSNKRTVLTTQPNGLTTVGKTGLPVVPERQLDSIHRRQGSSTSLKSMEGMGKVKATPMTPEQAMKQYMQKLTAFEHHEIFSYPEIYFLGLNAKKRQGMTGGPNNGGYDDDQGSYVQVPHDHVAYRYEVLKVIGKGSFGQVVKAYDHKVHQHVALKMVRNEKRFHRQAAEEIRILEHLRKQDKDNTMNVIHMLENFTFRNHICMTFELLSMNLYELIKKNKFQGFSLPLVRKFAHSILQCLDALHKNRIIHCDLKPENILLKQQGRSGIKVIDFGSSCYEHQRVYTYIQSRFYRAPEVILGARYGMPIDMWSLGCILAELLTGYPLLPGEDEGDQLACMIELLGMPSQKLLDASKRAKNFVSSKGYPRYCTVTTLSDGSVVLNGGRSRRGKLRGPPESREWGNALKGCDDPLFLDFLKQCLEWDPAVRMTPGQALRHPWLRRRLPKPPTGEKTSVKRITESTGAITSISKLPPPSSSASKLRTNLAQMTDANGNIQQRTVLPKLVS
Briefly: DSF thermal shift. Conditions: 10 µM inhibitor; read-out: Tm shift. The format is binding. In outline: as §1

A further test concerns the target T9, DAPK3 (Homo sapiens, UniProt O43293).
T9 construct: purchased Nanosyn (enzymatic panel); SGC in-house recombinant human kinases (DSF panel); Invitrogen (ALK1-6)
Briefly: DSF thermal shift. The format is binding. Conditions: 10 µM inhibitor; read-out: Tm shift. Put shortly: as §1

The next test has as its target T10, NDR1 (Homo sapiens, UniProt Q15208).
T10 construct: purchased Nanosyn (enzymatic panel); SGC in-house recombinant human kinases (DSF panel); Invitrogen (ALK1-6)
Kind of test: DSF thermal shift. The format is binding. Conditions: 10 µM inhibitor; read-out: Tm shift. In outline:
as §1

The test system of test [1] is TGF-β-induced phosphorylation of Smad2 in C2C12 cells. Kind of test: TGF-β-induced phosphorylation of Smad2, Western blot. The format is cell-based. The settings on record: qualitative. The protocol: (§2) C2C12 and HEK293 cells were grown in DMEM supplemented with 10% FCS (PAA) and seeded at a density of 1 x 10^5 cells per well in 6-well plates. The next day the cells were starved in DMEM containing 1% FCS for 5 hours. Inhibitors were added at the indicated concentrations for 30 minutes followed by 10 ng/mL BMP4 (Peprotech), 100 ng/mL BMP6 (Peprotech), 100 ng/mL Activin A (Peprotech) or 2 ng/mL TGF-β1 (Cell Signaling) for 1 hour. Cells were washed in PBS and lysed on ice for 30 minutes in lysis buffer (20 mM Tris-HCl pH 7.5, 150 mM NaCl, 1% Triton X-100, 25 mM NaF, 25 mM Na β-glycerophosphate, 2 mM Na3VO4) containing protease inhibitors (Roche). Protein concentration in the clarified lysate was determined by Bradford Assay (Pierce) and 15 µg run on 4–12% Bis-Tris gel (Biorad). The protein was transferred onto nitrocellulose membrane (GE Healthcare) and probed with the relevant antibody at 4°C overnight (Cell Signaling: anti-Smad 1 (#9743), anti-P-Smad 1/5/8 (#9511), anti-Smad 2 (#5339), anti-P-Smad 2 (#3101). After subsequent incubation with HRP-conjugated anti-rabbit antibody, protein bands were detected using ECL (Pierce) and an LAS4000 image reader. Cells were purchased originally from the European Collection of Cell Cultures (ECACC) available through Sigma.
For orientation: Immunoblotting shows a protein as a band on a membrane.

Test [2] relates to mRFP under control of a BMP response element. Kind of test: Western blot for mRFP in Tg(BRE:mRFP) embryos. The format is in vivo, zebrafish. The settings on record: 26 hours old embryos. The protocol:
Inhibitor stocks were diluted in DMSO and then further diluted in fish water to give the required inhibitor concentrations. To minimize the amount of inhibitors used, experiments were performed in 24-well plates with approximately 20 embryos per well in a volume of 1 mL. The chemical treatment was applied by immersing 8- to 16-cell stage Tg(BRE:mRFP) embryos (dorsalization experiment) or 12 hours old Tg(fli1a:eGFP) embryos (ISV experiment) in the fish water supplemented with DMSO or the chemical inhibitors. For the ISV experiment, embryos were manually dechorionated after bud stage before treatment. Embryos were scored and photographed at 26 or 48 hours.
Ten non-dechorionated 26 hours old treated Tg(BRE:mRFP) embryos were snap frozen on dry ice and stored at −80°C. Protein extracts were prepared as described previously for Xenopus embryos. Extraction buffer was freshly prepared. 10 µL per embryo of the protein extract buffer was used to lyse the embryos using a plastic pestle and a pellet pestle motor (Kontes). 40 µg (∼ 1 embryo equivalent) of protein extract was loaded per lane on a 12.5% SDS-PAGE gel. The rabbit anti-mRFP (Invitrogen, R10367) and the goat anti-MCM6 (Santa Cruz, sc-9843) antibodies were used for Western blots.

Test [3] relates to BMP4 induced Smad1/5/8 phosphorylation in C2C12 cells. Briefly: BMP4 induced Smad1/5/8 phosphorylation, Western blot. The format is cell-based. The settings on record: for IC50: Mus musculus. The method, then:
as §2

T9 sequence (O43293 whole entry): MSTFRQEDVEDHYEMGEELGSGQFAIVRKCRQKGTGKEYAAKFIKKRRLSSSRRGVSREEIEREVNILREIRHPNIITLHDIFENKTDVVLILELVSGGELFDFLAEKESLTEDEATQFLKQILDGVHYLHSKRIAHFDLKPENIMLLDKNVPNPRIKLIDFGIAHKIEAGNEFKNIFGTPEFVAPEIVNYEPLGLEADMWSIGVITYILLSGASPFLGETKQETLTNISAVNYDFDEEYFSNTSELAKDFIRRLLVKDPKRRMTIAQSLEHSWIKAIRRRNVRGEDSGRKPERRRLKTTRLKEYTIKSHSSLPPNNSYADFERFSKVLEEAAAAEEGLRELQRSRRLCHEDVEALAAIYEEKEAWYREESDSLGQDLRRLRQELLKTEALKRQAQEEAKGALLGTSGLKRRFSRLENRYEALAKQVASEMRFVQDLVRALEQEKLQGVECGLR
T5 sequence (Q9BYT3 whole entry): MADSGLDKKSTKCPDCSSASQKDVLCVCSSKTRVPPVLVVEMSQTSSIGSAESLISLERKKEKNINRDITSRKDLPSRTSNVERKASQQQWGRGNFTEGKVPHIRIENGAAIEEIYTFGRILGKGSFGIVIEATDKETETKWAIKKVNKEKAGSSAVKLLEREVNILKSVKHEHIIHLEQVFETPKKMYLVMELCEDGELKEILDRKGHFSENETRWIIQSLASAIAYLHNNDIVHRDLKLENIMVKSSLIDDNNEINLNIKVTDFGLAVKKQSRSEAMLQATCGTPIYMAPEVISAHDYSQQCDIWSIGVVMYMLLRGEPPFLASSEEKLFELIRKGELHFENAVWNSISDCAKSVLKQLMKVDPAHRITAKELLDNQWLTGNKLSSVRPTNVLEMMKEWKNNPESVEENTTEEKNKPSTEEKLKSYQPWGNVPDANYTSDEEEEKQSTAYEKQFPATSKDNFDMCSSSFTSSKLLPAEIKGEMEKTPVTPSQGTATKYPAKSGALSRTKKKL
T4 sequence (Q9NYL2 whole entry): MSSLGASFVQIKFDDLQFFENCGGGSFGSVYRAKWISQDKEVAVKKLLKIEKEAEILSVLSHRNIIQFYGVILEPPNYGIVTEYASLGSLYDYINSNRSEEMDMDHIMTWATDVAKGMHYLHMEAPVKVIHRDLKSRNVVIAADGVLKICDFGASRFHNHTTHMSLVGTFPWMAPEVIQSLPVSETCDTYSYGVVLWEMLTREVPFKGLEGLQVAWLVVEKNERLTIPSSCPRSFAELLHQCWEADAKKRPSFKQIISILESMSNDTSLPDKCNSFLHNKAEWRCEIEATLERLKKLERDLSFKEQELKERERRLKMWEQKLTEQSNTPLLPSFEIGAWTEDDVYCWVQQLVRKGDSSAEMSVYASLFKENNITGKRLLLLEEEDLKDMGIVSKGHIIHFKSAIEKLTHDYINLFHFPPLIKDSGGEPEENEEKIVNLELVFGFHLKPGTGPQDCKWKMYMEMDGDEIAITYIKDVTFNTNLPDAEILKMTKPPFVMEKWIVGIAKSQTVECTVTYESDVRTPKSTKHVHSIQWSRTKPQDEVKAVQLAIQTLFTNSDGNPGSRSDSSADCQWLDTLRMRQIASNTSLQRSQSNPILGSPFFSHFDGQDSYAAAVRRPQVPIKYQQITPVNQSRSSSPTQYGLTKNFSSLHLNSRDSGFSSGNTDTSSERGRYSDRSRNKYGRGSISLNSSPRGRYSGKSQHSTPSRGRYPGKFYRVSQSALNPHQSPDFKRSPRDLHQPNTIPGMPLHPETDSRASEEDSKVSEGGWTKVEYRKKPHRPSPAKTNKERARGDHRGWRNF
T3 sequence (O94806 whole entry): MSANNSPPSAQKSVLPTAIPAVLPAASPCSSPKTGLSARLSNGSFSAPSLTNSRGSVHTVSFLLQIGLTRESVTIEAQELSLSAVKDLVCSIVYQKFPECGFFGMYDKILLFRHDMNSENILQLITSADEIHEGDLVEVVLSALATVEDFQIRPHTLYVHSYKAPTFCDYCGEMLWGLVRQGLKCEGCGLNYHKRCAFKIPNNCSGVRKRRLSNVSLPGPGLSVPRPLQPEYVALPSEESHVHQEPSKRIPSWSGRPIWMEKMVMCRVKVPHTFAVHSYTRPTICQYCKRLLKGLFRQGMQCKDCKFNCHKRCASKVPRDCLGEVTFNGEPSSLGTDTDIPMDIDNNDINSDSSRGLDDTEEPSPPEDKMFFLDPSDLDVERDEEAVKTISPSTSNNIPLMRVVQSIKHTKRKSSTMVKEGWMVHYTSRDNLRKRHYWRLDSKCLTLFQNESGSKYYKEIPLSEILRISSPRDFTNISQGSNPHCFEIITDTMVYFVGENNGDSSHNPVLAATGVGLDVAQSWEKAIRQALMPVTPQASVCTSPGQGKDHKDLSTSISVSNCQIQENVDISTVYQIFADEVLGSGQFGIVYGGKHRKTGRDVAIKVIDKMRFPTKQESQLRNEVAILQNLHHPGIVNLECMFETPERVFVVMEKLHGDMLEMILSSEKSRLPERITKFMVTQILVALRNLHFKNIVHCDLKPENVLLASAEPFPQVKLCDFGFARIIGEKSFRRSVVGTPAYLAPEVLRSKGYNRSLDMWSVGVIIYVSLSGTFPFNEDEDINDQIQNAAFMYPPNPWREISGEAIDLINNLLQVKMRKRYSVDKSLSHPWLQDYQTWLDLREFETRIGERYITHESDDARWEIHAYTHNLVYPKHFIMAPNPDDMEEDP
T2 sequence (Q9UK32 whole entry): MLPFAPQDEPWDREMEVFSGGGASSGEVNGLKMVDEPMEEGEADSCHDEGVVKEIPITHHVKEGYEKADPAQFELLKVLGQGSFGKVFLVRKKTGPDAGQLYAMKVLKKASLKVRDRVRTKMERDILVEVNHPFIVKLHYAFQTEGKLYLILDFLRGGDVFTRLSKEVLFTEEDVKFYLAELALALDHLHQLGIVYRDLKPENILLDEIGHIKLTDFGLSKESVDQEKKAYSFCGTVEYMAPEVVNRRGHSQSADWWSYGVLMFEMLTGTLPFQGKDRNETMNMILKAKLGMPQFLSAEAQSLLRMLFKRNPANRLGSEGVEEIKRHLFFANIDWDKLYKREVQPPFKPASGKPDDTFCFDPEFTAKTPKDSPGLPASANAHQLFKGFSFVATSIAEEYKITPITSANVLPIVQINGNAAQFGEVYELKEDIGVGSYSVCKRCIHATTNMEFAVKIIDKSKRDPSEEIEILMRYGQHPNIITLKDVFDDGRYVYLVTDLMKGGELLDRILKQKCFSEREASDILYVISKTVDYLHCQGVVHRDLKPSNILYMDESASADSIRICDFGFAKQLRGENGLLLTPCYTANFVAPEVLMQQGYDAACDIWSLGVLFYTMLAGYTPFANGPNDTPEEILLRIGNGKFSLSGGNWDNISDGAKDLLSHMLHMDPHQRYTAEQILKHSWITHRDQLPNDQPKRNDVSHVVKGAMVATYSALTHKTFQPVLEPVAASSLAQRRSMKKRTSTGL
T6 sequence (Q15759 whole entry): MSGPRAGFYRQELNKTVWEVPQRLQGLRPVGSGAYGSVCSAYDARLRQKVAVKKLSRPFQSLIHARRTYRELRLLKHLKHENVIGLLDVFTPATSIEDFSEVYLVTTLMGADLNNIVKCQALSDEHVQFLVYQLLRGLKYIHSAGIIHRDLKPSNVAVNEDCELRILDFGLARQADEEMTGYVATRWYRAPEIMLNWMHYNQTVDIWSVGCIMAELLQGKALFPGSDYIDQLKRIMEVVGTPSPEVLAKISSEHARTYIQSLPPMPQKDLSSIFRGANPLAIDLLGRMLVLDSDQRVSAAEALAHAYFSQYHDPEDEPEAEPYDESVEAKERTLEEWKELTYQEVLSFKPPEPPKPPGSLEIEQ
T1 sequence (P78362 whole entry): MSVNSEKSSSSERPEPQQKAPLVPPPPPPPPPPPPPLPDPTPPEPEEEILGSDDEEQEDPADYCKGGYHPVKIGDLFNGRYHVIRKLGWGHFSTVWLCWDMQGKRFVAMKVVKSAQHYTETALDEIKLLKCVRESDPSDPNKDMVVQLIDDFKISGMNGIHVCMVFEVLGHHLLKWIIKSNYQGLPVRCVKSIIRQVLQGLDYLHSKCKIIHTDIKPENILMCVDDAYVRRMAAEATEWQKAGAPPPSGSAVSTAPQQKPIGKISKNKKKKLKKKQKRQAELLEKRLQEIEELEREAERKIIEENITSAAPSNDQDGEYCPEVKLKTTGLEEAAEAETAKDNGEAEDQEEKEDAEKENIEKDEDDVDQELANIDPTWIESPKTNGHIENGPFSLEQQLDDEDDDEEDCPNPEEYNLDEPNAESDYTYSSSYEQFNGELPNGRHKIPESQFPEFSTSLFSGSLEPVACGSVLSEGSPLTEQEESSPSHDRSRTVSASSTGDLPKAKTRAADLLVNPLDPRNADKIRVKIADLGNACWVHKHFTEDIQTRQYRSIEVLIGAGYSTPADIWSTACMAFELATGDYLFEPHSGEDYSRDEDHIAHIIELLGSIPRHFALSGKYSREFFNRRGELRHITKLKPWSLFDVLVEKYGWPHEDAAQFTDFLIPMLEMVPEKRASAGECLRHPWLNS
T10 sequence (Q15208 whole entry): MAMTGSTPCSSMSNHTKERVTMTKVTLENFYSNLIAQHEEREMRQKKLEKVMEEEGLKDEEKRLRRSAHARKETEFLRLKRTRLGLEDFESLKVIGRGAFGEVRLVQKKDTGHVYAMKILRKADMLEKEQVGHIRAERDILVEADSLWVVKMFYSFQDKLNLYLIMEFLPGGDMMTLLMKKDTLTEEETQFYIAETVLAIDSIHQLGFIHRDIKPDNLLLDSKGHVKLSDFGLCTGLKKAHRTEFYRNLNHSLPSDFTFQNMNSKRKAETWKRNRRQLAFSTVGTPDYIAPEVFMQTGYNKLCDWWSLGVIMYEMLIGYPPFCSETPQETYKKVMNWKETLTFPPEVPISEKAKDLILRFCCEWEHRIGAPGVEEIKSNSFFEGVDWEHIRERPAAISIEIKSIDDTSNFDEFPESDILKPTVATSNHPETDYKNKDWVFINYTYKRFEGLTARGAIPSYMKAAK

On to `c1cc(-c2cnn3cc(-c4ccc(OCCN5CCCCC5)cc4)cnc23)ccn1` [Dorsomorphin], for which the ΔTm at 10 µM on SRPK2 worked out at 0.2 °C; at RSK4 it was 2.7 °C; at PKD3, 0.9 °C; at ZAK it was 0.5 °C; at STK33 it was 4.2 °C; at p38β, 1.1 °C. Moreover, the ΔTm at 10 µM came out at 2.9 °C at PRKX, 5.1 °C on DYRK2, 1.2 °C at DAPK3 and 2.8 °C at NDR1.

Consider `COc1cc(-c2cc(-c3cccc(O)c3)cnc2N)cc(OC)c1OC` [K02288, 3-[6-amino-5-(3,4,5-trimethoxy-phenyl)-pyridin-3-yl]-phenol], for which the ΔTm at 10 µM at SRPK2 is 0.2 °C; at RSK4 it was 1.4 °C; on PKD3, 1.2 °C; at ZAK it was -0.1 °C; at STK33 it was 1.1 °C; at p38β it was 0.5 °C. Moreover, the ΔTm at 10 µM at PRKX worked out at 0.2 °C; on DYRK2, 0.3 °C; on DAPK3 it was 0.2 °C; on NDR1, 0.1 °C. Further, the “effect on TGF-β-induced phosphorylation of Smad2” value in test [1] is reported as “no effect”. Moreover, the “concentration at which loss of mRFP protein was evident” value in test [2] was in the range of 8 to 10 µM. Also, the “activity weaker than control compound LDN-193189” value in [3] (C2C12 cells, BMP4, P-Smad1/5/8) was 10 fold. In [3] (C2C12 cells, BMP4 stimulation, read-out: apparent IC50, Smad1/5/8 phosphorylation), the IC50 amounted to 100 nM.

As to `c1ccc2c(-c3cnn4cc(-c5ccc(N6CCNCC6)cc5)cnc34)ccnc2c1` [LDN-193189], in test [1], the “effect on TGF-β-induced phosphorylation of Smad2” value is listed as “no effect”. Moreover, in [3] (C2C12, read-out: apparent IC50, Smad1/5/8 phosphorylation), the IC50 worked out at 10 nM.
